Assay results published in ChEMBL document CHEMBL5126503, “Renieramycin-type alkaloids from marine-derived organisms: Synthetic chemistry, biological activity and structural modification” (Eur J Med Chem, 2021).

Key:
[1] = system: A549; test: Cytotoxicity against human A549 cells assessed as cell growth inhibition; assay type: functional, cell-based
[2] = Cytotoxicity against human HEK293 cells assessed as cell growth inhibition; assay type: toxicity, cell-based
[3] = system: HL-60; test: Cytotoxicity against human HL-60 cells assessed as cell growth inhibition; assay type: functional, cell-based
[4] = Antiproliferative activity against human HELF cells assessed as cell growth inhibition; assay type: toxicity, cell-based
[5] = system: HCT-8; test: Antiproliferative activity against human HCT-8 cells assessed as cell growth inhibition; assay type: functional, cell-based
[6] = system: KETR3; test: Antiproliferative activity against human KETR3 cells assessed as cell growth inhibition; assay type: functional, cell-based
[7] = system: BGC-823; test: Antiproliferative activity against human BGC-823 cells assessed as cell growth inhibition; assay type: functional, cell-based
[8] = system: KB; test: Antiproliferative activity against human KB cells assessed as cell growth inhibition; assay type: functional, cell-based
[9] = system: HeLa; test: Antiproliferative activity against human HeLa cells assessed as cell growth inhibition; assay type: functional, cell-based
[10] = system: Bel-7402; test: Antiproliferative activity against human Bel-7402 cells assessed as cell growth inhibition; assay type: functional, cell-based
[11] = system: A2780; test: Antiproliferative activity against human A2780 cells assessed as cell growth inhibition; assay type: functional, cell-based
[12] = system: MCF7; test: Antiproliferative activity against human MCF7 cells assessed as cell growth inhibition; assay type: functional, cell-based
[13] = system: QG-56; test: Cytotoxicity against human QG-56 cells assessed as cell growth inhibition; assay type: functional, cell-based
[14] = system: ASPC1; test: Cytotoxicity against human ASPC1 cells assessed as cell growth inhibition; assay type: functional, cell-based
[15] = system: HCT-116; test: Cytotoxicity against human HCT-116 cells assessed as cell growth inhibition; assay type: functional, cell-based
[16] = system: T47D; test: Cytotoxicity against human T47D cells assessed as cell growth inhibition; assay type: functional, cell-based
[17] = system: MDA-MB-435; test: Antiproliferative activity against human MDA-MB-435 cells assessed as cell growth inhibition by MTT colorimetric assay; assay type: functional, cell-based
[18] = system: QG-56; test: Cytotoxicity against human QG-56 cells assessed as cell growth inhibition incubated for 4 days by Cell counting kit-8 assay; assay type: functional, cell-based; settings: QG-56, 96 h
[19] = system: DU-145; test: Growth inhibition of human DU-145 cells; assay type: functional
[20] = system: HCT-116; test: Antiproliferative activity against human HCT-116 cells assessed as cell growth inhibition by MTT colorimetric assay; assay type: functional, cell-based
[21] = Cytotoxicity against human U373 MG cells assessed as cell growth inhibition incubated for 4 to 72 hrs by MTT assay; assay type: functional, cell-based, U-373MG ATCC
[22] = system: MCF7; test: Cytotoxicity against human MCF7 cells assessed as cell growth inhibition incubated for 72 hrs by MTT assay; assay type: functional, cell-based; settings: MCF7, 72 h
[23] = system: DU-145; test: Cytotoxicity against human DU-145 cells assessed as cell growth inhibition; assay type: functional, cell-based
[24] = system: NCI-H460; test: Cytotoxicity against human NCI-H460 cells assessed as cell growth inhibition; assay type: functional, cell-based
[25] = system: DLD-1; test: Cytotoxicity against human DLD-1 cells assessed as cell growth inhibition; assay type: functional, cell-based
[26] = system: HCT-116; test: Cytotoxicity against human HCT-116 cells assessed as cell growth inhibition incubated for 4 days by Cell counting kit-8 assay; assay type: functional, cell-based; settings: HCT-116, 96 h
[27] = system: HL-60; test: Cytotoxicity against human HL-60 cells assessed as cell growth inhibition by MTT assay; assay type: functional, cell-based
[28] = system: A549; test: Cytotoxicity against human A549 cells assessed as cell growth inhibition by SRB assay; assay type: functional, cell-based

## COC1=C(C)C(=O)C2=C(C1=O)[C@@H]1[C@@H]3CC4=C(C(=O)C(OC)=C(C)C4=O)[C@H](CO)N3[C@@H](CC(C)=O)[C@H](C2=O)N1C
[1]
  IC50: 6200 nM
[2]
  IC50: 1000 nM
[3]
  IC50: 2500 nM

## COC1=C(C)C(=O)C2=C(C1=O)[C@@H]1[C@@H]3CC4=C(C(=O)C(OC)=C(C)C4=O)[C@H](COC(=O)C(=O)CNC(=O)c4ccccc4)N3[C@@H](C#N)[C@H](C2)N1C
[4]
  IC50: 2.12 nM
[1]
  IC50: 2.12 nM
[5]
  IC50: 2.12 nM
[6]
  IC50: 2.12 nM
[7]
  IC50: 2.12 nM
[8]
  IC50: 2.12 nM
[9]
  IC50: 2.12 nM
[10]
  IC50: 2.12 nM
[11]
  IC50: 2.12 nM
[12]
  IC50: 2.12 nM

## C/C=C(/C)C(=O)OC[C@H]1c2c(c(O)c(C)c3c2OCO3)C[C@H]2[C@H]3C4=C(C[C@@H]([C@H](C#N)N12)N3C)C(=O)C(C)=C(OC)C4=O
[13]
  IC50: 77 nM
[14]
  IC50: 98 nM
[15]
  IC50: 39 nM
[16]
  IC50: 4.7 nM

## C/C=C(/C)C(=O)OC[C@H]1C2=C(C[C@H]3[C@H]4C5=C(C[C@@H]([C@H](C#N)N13)N4C)C(=O)C(C)=C(OC)C5=O)C(=O)C(C)=C(OC)C2=O [RENIERAMYCIN M]
[17]
  IC50: 6.3 nM
[18]
  IC50: 11 nM
[14]
  IC50: 20 nM
[19]
  GI50: 1700 nM
[16]
  IC50: 0.84 nM
[20]
  IC50: 16.4 nM
[21]
  IC50: 3.1 nM
[22]
  IC50: 6 nM

## COC1=C(C)C(=O)C2=C(C1=O)[C@H](COC(C)=O)N1[C@@H](C2)CN(C)C[C@@H]1C#N
[13]
  IC50: 220 nM
[23]
  IC50: 990 nM
[15]
  IC50: 54 nM

## C/C=C(/C)C(=O)OC[C@H]1C2=C(C[C@H]3[C@H]4c5c(O)c(OC)c(C)c(O)c5[C@@H](O)[C@@H]([C@H](C#N)N13)N4C)C(=O)C(C)=C(OC)C2=O
[13]
  IC50: 11 nM
[15]
  IC50: 5.6 nM
[24]
  IC50: 6.7 nM
[25]
  IC50: 5.7 nM

## COC1=C(C)C(=O)C2=C(C1=O)[C@H]1CN(C)[C@@H](C#N)[C@H](C2)N1C
[13]
  IC50: 240 nM
[15]
  IC50: 84 nM

## COC1=C(C)C(=O)C2=C(C1=O)[C@H]1CN(Cc3ccccc3)[C@@H](C#N)[C@H](C2)N1C
[18]
  IC50: 17 nM
[26]
  IC50: 17 nM

## C/C=C(/C)C(=O)OC[C@H]1C2=C(C[C@H]3[C@H]4C5=C(C(=O)C(C)=C(OC)C5=O)[C@H](O)[C@@H]([C@H](CC(C)=O)N13)N4C)C(=O)C(C)=C(O)C2=O
[1]
  IC50: > 100000 nM
[3]
  IC50: > 100000 nM

## C/C=C(/C)C(=O)OC[C@H]1C2=C(C[C@H]3[C@H]4C5=C(C[C@@H]([C@H](CC(C)=O)N13)N4C)C(=O)C(C)=C(OC)C5=O)C(=O)C(C)=C(OC)C2=O
[27]
  IC50: > 100000 nM
[2]
  IC50: 7100 nM
[28]
  IC50: > 100000 nM

## C/C=C(/C)C(=O)OC[C@H]1c2c(c(OC(C)=O)c(C)c3c2OCO3)C[C@H]2[C@H]3C4=C(C[C@@H]([C@H](C#N)N12)N3C)C(=O)C(C)=C(OC)C4=O
[13]
  IC50: 79 nM
[14]
  IC50: 120 nM
[15]
  IC50: 34 nM
[16]
  IC50: 10 nM
